According to US20060111388A1, “Phenanthroline and derivatives thereof used to lower intraocular pressure in an affected eye” (University of North Texas Health Science Center at Fort …, priority 2004, published 2006):

Key:
[1] = test system: Morrison rat model eye with elevated intraocular pressure; test: Morrison rat model for glaucoma, IOP by tonometer after topical application; assay type: in vivo
From the text: The Intraocular Pressure (“IOP”) in a rat eye was lowered following treatment of the eye with about a 1% (w/v) phenanthroline solution. Briefly, the IOP was elevated in one eye for rats grouped as specified below by using the method as described by Morrison et al (1997). […] The other eyes was used as a control. Rats were housed post-surgically in constant low light (<90 lux) to minimize effects of circadian influences on IOP. Five rats were used per treatment group.
A solution of 1,7-phenanthroline was prepared by dissolving 10 mg of 1,7-phenanthroline in 32 μl methanol (100%) forming a concentrated 1,7-phenanthroline solution. About 3 μl of the concentrated 1,7-phenanthroline solution was then added to 96 μl of saline (0.9% NaCl) to form a working 1,7-phenanthroline solution. The working 1,7-phenanthroline solution was then used in the eye of the Morrison Model of Glaucoma. The average intraocular pressure (IOP) in Morrison model eye was 26.22 (average of nine readings) prior to application of the working 1,7-phenanthroline solution. In contrast, the IOP measured 6 hr after application of the working 1,7-phenanthroline solution dropped to 25.66, as shown in FIG. 6A.
(§1) A solution of 4,7-dihydroxy-1,10-phenanthroline was prepared by dissolving 7 mg of 4,7-dihydroxy-1,10-phenanthroline in 22 μl methanol, 30 μl 1 N NaOH, and 626 μl of saline (0.9% NaCl) forming a 4,7-dihydroxy-1,10-phenanthroline solution having a pH of about 10.42. […] The 4,7-dihydroxy-1,10-phenanthroline solution was centrifuged at 10,000×g for about 5 min to remove the precipitate. The clear supernatant was removed and used for testing the Morrison model eye. The average intraocular pressure (IOP) in the eye with elevated pressure was 27.77 (average of nine readings) prior to application of the drug.
(§2) A solution of 1,10-phenanthroline 5,6-dione was prepared by dissolving 7 mg of 1,10-phenanthroline 5,6-dione in 44 μl methanol, and 88 μl dimethylsulfoxide (DMSO). […] The 1,10-phenanthroline 5,6-dione solution with precipitate was centrifuged at 10,000×g for 5 min, and the clear supernatant was removed. 6 μl of the supernatant plus 97 μl of saline formed the working solution used in the Morison model of glaucoma. The average intraocular pressure (IOP) in eye with elevated pressure was 27.66 (average of nine readings) prior to application of the drug.

[2] = Solubility observed while preparing the test solution; assay type: physicochemical
Method: as §1, §2

[3] = test system: patients; details: patients treated with latanoprost; cited from earlier work
[4] = molecular target: T1, thermolysin (Bacillus thermoproteolyticus, UniProt P00800); details: reversible inhibitor; cited from earlier work
T1 sequence (P00800 233-548): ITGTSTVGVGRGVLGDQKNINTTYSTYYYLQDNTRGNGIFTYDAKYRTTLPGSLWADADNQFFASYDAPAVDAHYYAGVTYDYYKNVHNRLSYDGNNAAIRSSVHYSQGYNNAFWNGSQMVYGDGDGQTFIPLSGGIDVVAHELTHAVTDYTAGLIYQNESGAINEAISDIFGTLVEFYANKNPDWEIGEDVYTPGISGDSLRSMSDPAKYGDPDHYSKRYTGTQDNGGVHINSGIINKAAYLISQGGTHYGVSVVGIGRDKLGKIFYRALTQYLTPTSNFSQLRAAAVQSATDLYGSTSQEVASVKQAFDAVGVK

Structure (SMILES): c1cnc2c(c1)ccc1ncccc12 [1,7-phenanthroline]
- IOP measured 6 hr after application (FIG. 6A) ([1]; working solution: 10 mg in 32 μl methanol, 3 μl added to 96 μl saline, average IOP 26.22 (nine readings) prior to application): 25.66

Structure (SMILES): O=C1C(=O)c2cccnc2-c2ncccc21 [1,10-phenanthroline 5,6-dione]
- solubility in methanol and DMSO ([2]; 7 mg in 44 μl methanol and 88 μl dimethylsulfoxide): the entire drug was not solubilized
- IOP measured 6 hr after application (FIG. 6C) ([1]; 6 μl supernatant (7 mg in 44 μl methanol, 88 μl DMSO) plus 97 μl saline, average IOP 27.66 (nine readings) prior to application): 25.44

Structure (SMILES): Oc1ccnc2c1ccc1c(O)ccnc12 [4,7-dihydroxy-1,10-phenanthroline]
- solubility on adjusting solution from pH about 10.42 to pH 7.7 ([2]; 7 mg in 22 μl methanol, 30 μl 1 N NaOH, 626 μl saline, 1N HCl): some precipitation of the drug
- IOP measured 6 hr after application (FIG. 6B) ([1]; clear supernatant of 7 mg in 22 μl methanol, 30 μl 1 N NaOH, 626 μl saline, adjusted to pH 7.7, average IOP 27.77 (nine readings) prior to application): 26.22

Structure (SMILES): CC(C)OC(=O)CCC/C=C\C[C@@H]1[C@@H](CC[C@@H](O)CCc2ccccc2)[C@H](O)C[C@@H]1O [latanoprost, Latanoprost]
- increased iris pigmentation, share of patients [3]: up to one in six

Structure (SMILES): c1cnc2c(c1)ccc1cccnc12 [phenanthroline, 1,10-phenanthroline]
- Ki [4]: 40 µM
- intraocular pressure (FIG. 4) ([1]; 1% (w/v) in saline, 20-25 μl topically once, 22 and 27 days following surgery, cohort 2-4-04, IOP measured after 1 hour and 6 hours): decreased
- intraocular pressure (FIG. 5) ([1]; 1% phenanthroline, 27 days following surgery, ID#1-17-48 in cohort 2-4-04): decreased
